Measurements: patent US20240041840A1 (Areteia Therapeutics, Inc., priority 2020, published 2024)
Read-outs that look alike come from different tables or passages of the source.

System: subjects with eosinophilic asthma
Procedure: Pulmonary function is measured by performing a spirometry, which measures forced expiratory volume in is (FEV1), the volume of air moved in the first second of exhalation, this is a well-accepted measure of asthma. Forced vital capacity (FVC) is the total volume of air exhaled during the entire forced expiratory volume (FEV) test. The FEV1/FVC ratio is a calculated measure that may provide a more specific measure of bronchoconstriction, independent of processes such as air trapping. Pulmonary function testing can be tested pre-bronchodilator (after waiting a sufficient time so that all bronchodilator medications have cleared) or post-bronchodilator, typically 15-30 minutes after inhaling a short-acting bronchodilator, such as albuterol. Bronchodilator reversibility (BDR) is calculated and assessed by analyzing FEV1 pre- and post-bronchodilator, and calculating the change both as absolute (ml) and percentage change.
Evaluation of Efficacy: Blood eosinophil count, changes in pulmonary function (FEV1), Asthma Control Questionnaire (ACQ-6), Asthma Control Questionnaire (ACQ-7), Asthma Quality of Life Questionnaire (AQLQ), exhaled nitric oxide, pharyngeal and nasal eosinophil peroxidase were collected periodically during the study.
To control the alpha level for testing 3 dose groups versus placebo for the primary endpoint and for testing FEV1, a closed hierarchical testing procedure was used in the following order: 1. First, the 300 mg/day dose group was tested versus placebo for change in blood absolute eosinophil count, and if this reached the <0.05 level then, 2. the 150 mg/day dose group was tested versus placebo at the 0.05 level for change in blood absolute eosinophil count, and if this reached the <0.05 level then, 3. the pooled 150 and 300 mg/day dose groups were tested versus placebo at the 0.05 level for change in FEV1 at Week 12, then 4. the 75 mg/day dose group was tested versus placebo at the 0.05 level for change in blood absolute eosinophil count, and if this reached the <0.05 level.

[1] = 75 mg/day, Table 6D, timepoint printed as Analysis Baseline*
[2] = 75 mg/day, Table 6D, timepoint printed as Week 4
[3] = 150 mg/day, Table 6D, timepoint printed as Analysis Baseline*
[4] = 150 mg/day, Table 6D, timepoint printed as Week 4
[5] = 300 mg/day, Table 6D, timepoint printed as Analysis Baseline*
[6] = 300 mg/day, Table 6D, timepoint printed as Week 4
[7] = Week 4, pooled dexpramipexole arms, <50% AEC reduction at Week 12
[8] = Week 4, pooled dexpramipexole arms, ≥50% AEC reduction at Week 12
[9] = Week 8, pooled dexpramipexole arms, ≥50% AEC reduction at Week 12
[10] = Week 12, pooled dexpramipexole arms, <50% AEC reduction at Week 12
[11] = Week 12, pooled dexpramipexole arms, ≥50% AEC reduction at Week 12
[12] = Week 16 or Week 18, pooled dexpramipexole arms, ≥50% AEC reduction at Week 12

CCCN[C@@H]1CCc2nc(N)sc2C1 [dexpramipexole, (6R)-2-amino-4,5,6,7-tetrahydro-6-(propylamino) benzothiazole]
Pre-Bronchodilator FEV1 % change, mean [1]: 12.0% | Pre-Bronchodilator FEV1 % change, median [1]: 10.7% | Pre-Bronchodilator FEV1 change, mean [1]: 0.237 L | Pre-Bronchodilator FEV1 change, median [1]: 0.170 L | Pre-Bronchodilator FEV1 observed, mean [1]: 228 L | Pre-Bronchodilator FEV1 observed, median [1]: 2.24 L | Pre-Bronchodilator FEV1 % change, mean [2]: 9.27% | Pre-Bronchodilator FEV1 % change, median [2]: 5.48% | Pre-Bronchodilator FEV1 change, mean [2]: 0.207 L | Pre-Bronchodilator FEV1 change, median [2]: 0.115 L | Pre-Bronchodilator FEV1 observed, mean [2]: 2.24 L | Pre-Bronchodilator FEV1 observed, median [2]: 2.08 L | FEV1 change from Baseline LSM (75 mg/day, Week 4): 0.150 L | FEV1 difference versus Placebo LSM (75 mg/day, Week 4): 0.165 L | Pre-Bronchodilator FEV1 % change, median (75 mg/day, Week 4): 4.85% | Pre-Bronchodilator FEV1, % change from Baseline, mean (75 mg/day, Week 4): 6.25% | Pre-Bronchodilator FEV1 change, mean (75 mg/day, Week 4): 0.130 L | Pre-Bronchodilator FEV1 change, median (75 mg/day, Week 4): 0.0750 L | Pre-Bronchodilator FEV1 observed, mean (75 mg/day, Week 4): 2.10 L | Pre-Bronchodilator FEV1 observed, median (75 mg/day, Week 4): 2.10 L | Pre-Bronchodilator Percent Predicted FEV1 % change, mean (75 mg/day, Week 4): 62.4% | Pre-Bronchodilator Percent Predicted FEV1 % change, median (75 mg/day, Week 4): 4.85% | Pre-Bronchodilator Percent Predicted FEV1 change, mean (75 mg/day, Week 4): 3.59% | Pre-Bronchodilator Percent Predicted FEV1 change, median (75 mg/day, Week 4): 2.69% | Pre-Bronchodilator Percent Predicted FEV1 observed, mean (75 mg/day, Week 4): 62.2% | Pre-Bronchodilator Percent Predicted FEV1 observed, median (75 mg/day, Week 4): 64.4% | FEV1 change from Baseline LSM (75 mg/day, Week 8): 0.204 L | FEV1 difference versus Placebo LSM (75 mg/day, Week 8): 0.210 L | Pre-Bronchodilator FEV1, % change from Baseline, mean (75 mg/day, Week 8): 12.0% | FEV1 change from Baseline LSM (75 mg/day, Week 12): 0.168 L | FEV1 difference versus Placebo LSM (75 mg/day, Week 12): 0.121 L | Pre-Bronchodilator FEV1, % change from Baseline, mean (75 mg/day, Week 12): 9.27% | FEV1 change from Baseline LSM (75 mg/day, Week 16 or Week 18): 0.295 L | FEV1 difference versus Placebo LSM (75 mg/day, Week 16 or Week 18): 0.327 L | Pre-Bronchodilator FEV1, % change from Baseline, mean (75 mg/day, Week 16 or Week 18): 17.6% | ΔFEV1 vs Placebo LSM (SEM), pooled data (75 mg/day, Weeks 4, 8, 12, & 16/18 pooled): 206 mL | Pre-Bronchodilator FEV1 % change, mean [3]: 7.57% | Pre-Bronchodilator FEV1 % change, median [3]: 3.88% | Pre-Bronchodilator FEV1 change, mean [3]: 0.130 L | Pre-Bronchodilator FEV1 change, median [3]: 0.0900 L | Pre-Bronchodilator FEV1 observed, mean [3]: 2.21 L | Pre-Bronchodilator FEV1 observed, median [3]: 2.22 L | Pre-Bronchodilator FEV1 % change, mean [4]: 3.14% | Pre-Bronchodilator FEV1 % change, median [4]: −1.72% | Pre-Bronchodilator FEV1 change, mean [4]: 0.0414 L | Pre-Bronchodilator FEV1 change, median [4]: -0.0400 L | Pre-Bronchodilator FEV1 observed, mean [4]: 2.12 L | Pre-Bronchodilator FEV1 observed, median [4]: 2.11 L | FEV1 change from Baseline LSM (150 mg/day, Week 4): 0.151 L | FEV1 difference versus Placebo LSM (150 mg/day, Week 4): 0.166 L | Pre-Bronchodilator FEV1 % change, median (150 mg/day, Week 4): 4.54% | Pre-Bronchodilator FEV1, % change from Baseline, mean (150 mg/day, Week 4): 7.31% | Pre-Bronchodilator FEV1 change, mean (150 mg/day, Week 4): 0.123 L | Pre-Bronchodilator FEV1 change, median (150 mg/day, Week 4): 0.0800 L | Pre-Bronchodilator FEV1 observed, mean (150 mg/day, Week 4): 2.15 L | Pre-Bronchodilator FEV1 observed, median (150 mg/day, Week 4): 2.05 L | Pre-Bronchodilator Percent Predicted FEV1 % change, mean (150 mg/day, Week 4): 7.31% | Pre-Bronchodilator Percent Predicted FEV1 % change, median (150 mg/day, Week 4): 4.54% | Pre-Bronchodilator Percent Predicted FEV1 change, mean (150 mg/day, Week 4): 3.95% | Pre-Bronchodilator Percent Predicted FEV1 change, median (150 mg/day, Week 4): 2.85% | Pre-Bronchodilator Percent Predicted FEV1 observed, mean (150 mg/day, Week 4): 67.4% | Pre-Bronchodilator Percent Predicted FEV1 observed, median (150 mg/day, Week 4): 69.2% | FEV1 change from Baseline LSM (150 mg/day, Week 8): 0.166 L | FEV1 difference versus Placebo LSM (150 mg/day, Week 8): 0.173 L | Pre-Bronchodilator FEV1, % change from Baseline, mean (150 mg/day, Week 8): 7.57% | FEV1 change from Baseline LSM (150 mg/day, Week 12): 0.0601 L | Pre-Bronchodilator FEV1, % change from Baseline, mean (150 mg/day, Week 12): 3.14% | FEV1 difference versus Placebo LSM (150 mg/day, Week 16 or Week 18): 0.161 L | Pre-Bronchodilator FEV1, % change from Baseline, mean (150 mg/day, Week 16 or Week 18): 7.71% | ΔFEV1 vs Placebo LSM (SEM), pooled data (150 mg/day, Weeks 4, 8, 12, & 16/18 pooled): 126 mL | Placebo-corrected FEV1 increase from baseline (300 mg/day arm, averaged Week 8 through Week 16/18): counts. In the 300 mg/day arm, placebo-corrected FEV1 increased more than 200 mL from baseline, averaged | Pre-Bronchodilator FEV1 % change, mean [5]: 15.5% | Pre-Bronchodilator FEV1 % change, median [5]: 10.5% | Pre-Bronchodilator FEV1 change, mean [5]: 0.277 L | Pre-Bronchodilator FEV1 change, median [5]: 0.250 L | Pre-Bronchodilator FEV1 observed, mean [5]: 2.32 L | Pre-Bronchodilator FEV1 observed, median [5]: 2.40 L | Pre-Bronchodilator FEV1 % change, mean [6]: 12.5% | Pre-Bronchodilator FEV1 % change, median [6]: 10.0% | Pre-Bronchodilator FEV1 change, mean [6]: 0.236 L | Pre-Bronchodilator FEV1 change, median [6]: 0.210 L | Pre-Bronchodilator FEV1 observed, mean [6]: 2.29 L | Pre-Bronchodilator FEV1 observed, median [6]: 2.45 L | FEV1 change from Baseline LSM (300 mg/day, Week 4): 0.0685 L | FEV1 difference versus Placebo LSM (300 mg/day, Week 4): 0.0838 L | Pre-Bronchodilator FEV1 % change, median (300 mg/day, Week 4): 3.95% | Pre-Bronchodilator FEV1, % change from Baseline, mean (300 mg/day, Week 4): 1.42% | Pre-Bronchodilator FEV1 change, mean (300 mg/day, Week 4): 0.0417 L | Pre-Bronchodilator FEV1 change, median (300 mg/day, Week 4): 0.0700 L | Pre-Bronchodilator FEV1 observed, mean (300 mg/day, Week 4): 2.14 L | Pre-Bronchodilator FEV1 observed, median (300 mg/day, Week 4): 2.16 L | Pre-Bronchodilator Percent Predicted FEV1 % change, mean (300 mg/day, Week 4): 1.42% | Pre-Bronchodilator Percent Predicted FEV1 % change, median (300 mg/day, Week 4): 3.94% | Pre-Bronchodilator Percent Predicted FEV1 change, mean (300 mg/day, Week 4): 0.607% | Pre-Bronchodilator Percent Predicted FEV1 change, median (300 mg/day, Week 4): 2.34% | Pre-Bronchodilator Percent Predicted FEV1 observed, mean (300 mg/day, Week 4): 62.5% | Pre-Bronchodilator Percent Predicted FEV1 observed, median (300 mg/day, Week 4): 62.3% | FEV1 change from Baseline LSM (300 mg/day, Week 8): 0.248 L | FEV1 difference versus Placebo LSM (300 mg/day, Week 8): 0.254 L | Pre-Bronchodilator FEV1, % change from Baseline, mean (300 mg/day, Week 8): 15.5% | FEV1 change from Baseline LSM (300 mg/day, Week 12): 0.209 L | FEV1 difference versus Placebo LSM (300 mg/day, Week 12): 0.162 L | Pre-Bronchodilator FEV1, % change from Baseline, mean (300 mg/day, Week 12): 12.5% | FEV1 change from Baseline LSM (300 mg/day, Week 16 or Week 18): 0.207 L | FEV1 difference versus Placebo LSM (300 mg/day, Week 16 or Week 18): 0.240 L | Pre-Bronchodilator FEV1, % change from Baseline, mean (300 mg/day, Week 16 or Week 18): 10.8% | ΔFEV1 vs Placebo LSM (SEM), pooled data (300 mg/day, Weeks 4, 8, 12, & 16/18 pooled): 185 mL | Improvement in FEV1 (150 and 75 mg/day arms): Week 8 through Week 16/18. Substantial improvements in FEV1 were also seen in the 150 and 75 mg/day arms. | ΔFEV1 vs Placebo LSM (SEM), pooled data (All Dex arms pooled, Week 4): 138 mL | ΔFEV1 vs Placebo LSM (SEM), pooled data (All Dex arms pooled, Week 8): 212 mL | ΔFEV1 vs Placebo LSM (SEM), pooled data (All Dex arms pooled, Week 12): 99 mL | ΔFEV1 vs Placebo LSM (SEM), pooled data (All Dex arms pooled, Week 16/18): 233 mL | ΔFEV1 vs Placebo LSM (SEM), pooled data (All Dex arms pooled, Weeks 4, 8, 12, & 16/18 pooled): 173 mL | Magnitude and statistical significance of FEV1 improvement from baseline compared with other drugs (Table 5, FIG. 3, FIG. 6): comparable or greater than that demonstrated in phase 2 clinical trials of benralizumab and mepolizumab | Pre-Bronchodilator FEV1 Change from Baseline LSM [7]: 0.0742 L | Pre-Bronchodilator FEV1 Difference versus Placebo LSM [7]: 0.0859 L | Pre-Bronchodilator FEV1 Change from Baseline LSM [8]: 0.163 L | Pre-Bronchodilator FEV1 Difference versus Placebo LSM [8]: 0.175 L | Pre-Bronchodilator FEV1 Difference versus Placebo LSM (Week 8, pooled dexpramipexole arms, <50% AEC reduction at Week 12): 0.132 L | Pre-Bronchodilator FEV1 Change from Baseline LSM [9]: 0.275 L | Pre-Bronchodilator FEV1 Difference versus Placebo LSM [9]: 0.276 L | Pre-Bronchodilator FEV1 Change from Baseline LSM [10]: 0.00797 L | Pre-Bronchodilator FEV1 Difference versus Placebo LSM [10]: -0.0448 L | Pre-Bronchodilator FEV1 Change from Baseline LSM [11]: 0.261 L | Pre-Bronchodilator FEV1 Difference versus Placebo LSM [11]: 0.208 L | Pre-Bronchodilator FEV1 Difference versus Placebo LSM (Week 16 or Week 18, pooled dexpramipexole arms, <50% AEC reduction at Week 12): 0.169 L | Pre-Bronchodilator FEV1 Change from Baseline LSM [12]: 0.258 L | Pre-Bronchodilator FEV1 Difference versus Placebo LSM [12]: 0.287 L | FEV1 in hematologic responders (all post-baseline time points (Table 12, FIG. 5)): significant increase
